Entries after “also recorded” stand apart in the source; their conditions may differ.
Experiments:
Schwann cell cultures = test: Treatment of isolated Schwann cell cultures (toxicity); format: cell-based
[1] = tested on: embryonic chick DRG neurons; test: Cryoculture assay of nerve explant cultures (predegeneration); format: cell-based; details: nerves cultured 2 days, 2% serum, in the presence of GM6001 (50 μM)
MMP = test: In situ zymography of nerve explants (net gelatinolytic activity); format: biochemical, rat; details: nerves cultured 2-day, 2% serum in the presence of GM6001
Experimental: In the control condition, the MMP inhibitor EDTA (30 mM) was included in the reaction buffer. After incubation for 24 h at 37° C., the sections were rinsed with PBS and fixed with 4% paraformaldehyde in phosphate buffer. The sections were rinsed with water and mounted using Citifluor.

SMILES: CNC(=O)[C@H](Cc1c[nH]c2ccccc12)NC(=O)[C@@H](CC(=O)NO)CC(C)C [GM6001]
- toxicity (Schwann cell cultures): very low toxicity
- increase in mean neurite length over uncultured control nerves [1]: 14%
- gelatinolytic activity in nerve explants (MMP): nearly undetectable; also recorded: markedly decreased
